pIC50: −log10 of the molar value.
How the values were obtained:
COR-L23 = experiment: cells; type: functional, cell-based; conditions: Homo sapiens;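 also: cell viability assay measuring how strongly compounds suppress growth of COR-L23 cells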
Description: SANGER: Inhibition of human COR-L23 cell growth in a cell viability assay.

COR-L279 = experiment: SANGER: Inhibition of human COR-L279 cell growth in a cell viability assay.; type: functional, cell-based
ChaGo-K-1 = experiment: cells; type: functional, cell-based; conditions: Homo sapiens;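 also: growth inhibition of ChaGo-K-1 cells, read out with a cell viability assay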
Description: SANGER: Inhibition of human ChaGo-K-1 cell growth in a cell viability assay.

D-542MG = experiment: cells; type: functional, cell-based; conditions: Homo sapiens
Description: SANGER: Inhibition of human D-542MG cell growth in a cell viability assay.

Daudi = experiment: cells; type: functional, cell-based; conditions: Homo sapiens;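 also: growth inhibition of Daudi cells, read out by a viability assay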
Description: SANGER: Inhibition of human Daudi cell growth in a cell viability assay.

EB2 = experiment: cells; type: functional, cell-based; conditions: Homo sapiens;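 also: growth inhibition of EB2 cells, read out with a cell viability assay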
Description: SANGER: Inhibition of human EB2 cell growth in a cell viability assay.

ECC4 = experiment: cells; type: functional, cell-based; conditions: Homo sapiens;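 also: growth inhibition of ECC4 cells, read out with a cell viability assay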
Description: SANGER: Inhibition of human ECC4 cell growth in a cell viability assay.

EGI-1 = experiment: cells; type: functional, cell-based; conditions: Homo sapiens;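 also: cell viability readout used to gauge growth inhibition of EGI-1 cells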
Description: SANGER: Inhibition of human EGI-1 cell growth in a cell viability assay.

EVSA-T = experiment: cells; type: functional, cell-based; conditions: Homo sapiens;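 also: growth inhibition of EVSA-T cells, read out with a cell viability assay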
Description: SANGER: Inhibition of human EVSA-T cell growth in a cell viability assay.

HCT-116 = experiment: cells; type: functional, cell-based; conditions: Homo sapiens
Description: SANGER: Inhibition of human HCT-116 cell growth in a cell viability assay.

HLE = experiment: cells; type: functional, cell-based; conditions: Homo sapiens;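 also: growth inhibition of human HLE cells, read out by a cell viability assay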
Description: SANGER: Inhibition of human HLE cell growth in a cell viability assay.

HPAF-II = experiment: cells; type: functional, cell-based; conditions: Homo sapiens;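 also: growth inhibition of HPAF-II cells, read out with a cell viability assay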
Description: SANGER: Inhibition of human HPAF-II cell growth in a cell viability assay.

HT1197 = experiment: cells; type: functional, cell-based, HT-1197; conditions: Homo sapiens
Description: SANGER: Inhibition of human HT-1197 cell growth in a cell viability assay.

HuP-T4 = experiment: cells; type: functional, cell-based; conditions: Homo sapiens;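 also: cell viability assay measuring how much HuP-T4 cell growth is inhibited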
Description: SANGER: Inhibition of human HuP-T4 cell growth in a cell viability assay.

IST-SL2 = experiment: cells; type: functional, cell-based; conditions: Homo sapiens;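 also: growth inhibition of human IST-SL2 cells, read out by a cell viability assay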
Description: SANGER: Inhibition of human IST-SL2 cell growth in a cell viability assay.

KMS-12-PE = experiment: cells; type: functional, cell-based; conditions: Homo sapiens;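 also: growth inhibition of human KMS-12-PE cells, measured with a cell viability assay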
Description: SANGER: Inhibition of human KMS-12-PE cell growth in a cell viability assay.

KU-19-19 = experiment: cells; type: functional, cell-based; conditions: Homo sapiens
Description: SANGER: Inhibition of human KU-19-19 cell growth in a cell viability assay.

KYSE-150 cell line = experiment: cells; type: functional, cell-based; conditions: Homo sapiens;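 also: growth inhibition of human KYSE-150 cells, read out with a cell viability assay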
Description: SANGER: Inhibition of human KYSE-150 cell growth in a cell viability assay.

KYSE-180 = experiment: cells; type: functional, cell-based; conditions: Homo sapiens;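 also: growth inhibition of KYSE-180 cells, read out with a cell viability assay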
Description: SANGER: Inhibition of human KYSE-180 cell growth in a cell viability assay.

KYSE-270 = experiment: cells; type: functional, cell-based; conditions: Homo sapiens;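 also: cell growth inhibition measured with a viability assay in the human KYSE-270 line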
Description: SANGER: Inhibition of human KYSE-270 cell growth in a cell viability assay.

LB996-RCC = experiment: cells; type: functional, cell-based; conditions: Homo sapiens
Description: SANGER: Inhibition of human LB996-RCC cell growth in a cell viability assay.

MDA-MB-468 = experiment: cells; type: functional, cell-based; conditions: Homo sapiens
Description: SANGER: Inhibition of human MDA-MB-468 cell growth in a cell viability assay.

ME-180 = experiment: cells; type: functional, cell-based; conditions: Homo sapiens;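 also: cell viability assay measuring growth inhibition of ME-180 cells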
Description: SANGER: Inhibition of human ME-180 cell growth in a cell viability assay.

MEL-HO = experiment: cells; type: functional, cell-based; conditions: Homo sapiens
Description: SANGER: Inhibition of human MEL-HO cell growth in a cell viability assay.

MEL-JUSO = experiment: cells; type: functional, cell-based; conditions: Homo sapiens;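 also: growth inhibition of human MEL-JUSO cells, read out with a cell viability assay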
Description: SANGER: Inhibition of human MEL-JUSO cell growth in a cell viability assay.

MONO-MAC-6 = experiment: cells; type: functional, cell-based; conditions: Homo sapiens;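 also: cell viability assay measuring growth inhibition of human MONO-MAC-6 cells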
Description: SANGER: Inhibition of human MONO-MAC-6 cell growth in a cell viability assay.

NB1 = experiment: cells; type: functional, cell-based; conditions: Homo sapiens;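 also: reduction of NB1 cell proliferation, read out with a viability assay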
Description: SANGER: Inhibition of human NB1 cell growth in a cell viability assay.

NCI-H1703 = experiment: cells; type: functional, cell-based; conditions: Homo sapiens;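 also: growth inhibition of NCI-H1703 cells, read out via a cell viability assay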
Description: SANGER: Inhibition of human NCI-H1703 cell growth in a cell viability assay.

NCI-H2081 = experiment: cells; type: functional, cell-based; conditions: Homo sapiens;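 also: growth inhibition of human NCI-H2081 cells, read out with a cell viability assay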
Description: SANGER: Inhibition of human NCI-H2081 cell growth in a cell viability assay.

NCI-H2228 = experiment: cells; type: functional, cell-based; conditions: Homo sapiens;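 also: growth inhibition of human NCI-H2228 cells, read out by a cell viability assay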
Description: SANGER: Inhibition of human NCI-H2228 cell growth in a cell viability assay.

NCI-H2347 = experiment: cells; type: functional, cell-based; conditions: Homo sapiens;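 also: growth inhibition of the cell line, read out with a cell viability assay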
Description: SANGER: Inhibition of human NCI-H2347 cell growth in a cell viability assay.

NCI-H322M = experiment: cells; type: functional, cell-based; conditions: Homo sapiens;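 also: cell viability assay measuring inhibition of growth of human NCI-H322M cells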
Description: SANGER: Inhibition of human NCI-H322M cell growth in a cell viability assay.

NCI-H748 = experiment: cells; type: functional, cell-based; conditions: Homo sapiens;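 also: growth inhibition of NCI-H748 cells, measured by a cell viability assay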
Description: SANGER: Inhibition of human NCI-H748 cell growth in a cell viability assay.

NCI-H889 = experiment: cells; type: functional, cell-based; conditions: Homo sapiens;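 also: cell growth inhibition of the cell line, read out with a viability assay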
Description: SANGER: Inhibition of human NCI-H889 cell growth in a cell viability assay.

SNU-16 = experiment: cells; type: functional, cell-based; conditions: Homo sapiens;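 also: growth inhibition of human SNU-16 cells, determined with a cell viability readout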
Description: SANGER: Inhibition of human NCI-SNU-16 cell growth in a cell viability assay.

PANC-03-27 = experiment: cells; type: functional, cell-based; conditions: Homo sapiens
Description: SANGER: Inhibition of human PANC-03-27 cell growth in a cell viability assay.

PANC-08-13 = experiment: cells; type: functional, cell-based; conditions: Homo sapiens
Description: SANGER: Inhibition of human PANC-08-13 cell growth in a cell viability assay.

PC-14 = experiment: cells; type: functional, cell-based; conditions: Homo sapiens;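 also: cell viability assay measuring inhibition of PC-14 cell growth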
Description: SANGER: Inhibition of human PC-14 cell growth in a cell viability assay.

PLC-PRF-5 = experiment: cells; type: functional, cell-based; conditions: Homo sapiens;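 also: growth inhibition of human PLC-PRF-5 cells, read out with a viability assay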
Description: SANGER: Inhibition of human PLC-PRF-5 cell growth in a cell viability assay.

RERF-LC-MS = experiment: cells; type: functional, cell-based; conditions: Homo sapiens;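 also: growth inhibition of human RERF-LC-MS cells, read out by a cell viability assay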
Description: SANGER: Inhibition of human RERF-LC-MS cell growth in a cell viability assay.

RMG-I = experiment: cells; type: functional, cell-based; conditions: Homo sapiens;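 also: growth inhibition of human RMG-I cells, read out with a cell viability assay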
Description: SANGER: Inhibition of human RMG-I cell growth in a cell viability assay.

RPMI 8402 = experiment: SANGER: Inhibition of human RPMI-8402 cell growth in a cell viability assay.; type: functional, cell-based
RT-4 = experiment: SANGER: Inhibition of human RT4 cell growth in a cell viability assay.; type: functional, cell-based
SNU-387 = experiment: cells; type: functional, cell-based; conditions: Homo sapiens
Description: SANGER: Inhibition of human SNU-387 cell growth in a cell viability assay.

SNU-423 = experiment: cells; type: functional, cell-based; conditions: Homo sapiens
Description: SANGER: Inhibition of human SNU-423 cell growth in a cell viability assay.

SW1463 = experiment: cells; type: functional, cell-based; conditions: Homo sapiens;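 also: growth inhibition of SW1463 cells, determined with a cell viability assay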
Description: SANGER: Inhibition of human SW1463 cell growth in a cell viability assay.

SW48 = experiment: cells; type: functional, cell-based; conditions: Homo sapiens;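 also: growth inhibition of SW48 cells, read out with a cell viability assay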
Description: SANGER: Inhibition of human SW48 cell growth in a cell viability assay.

SW780 = experiment: cells; type: functional, cell-based; conditions: Homo sapiens;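 also: growth inhibition of the cells, read out with a cell viability assay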
Description: SANGER: Inhibition of human SW780 cell growth in a cell viability assay.

T47D = experiment: cells; type: functional, cell-based; conditions: Homo sapiens;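 also: growth inhibition of human T47D cells, measured with a cell viability assay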
Description: SANGER: Inhibition of human T47D cell growth in a cell viability assay.

647-V = experiment: cells; type: functional, cell-based; conditions: Homo sapiens;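 also: growth inhibition of 647-V cells, read out with a cell viability assay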
Description: SANGER: Inhibition of human 647-V cell growth in a cell viability assay.

A 172 = experiment: cells; type: functional, cell-based; conditions: Homo sapiens;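 also: growth inhibition of A172 cells, measured with a cell viability readout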
Description: SANGER: Inhibition of human A172 cell growth in a cell viability assay.

A253 cell line = experiment: cells; type: functional, cell-based; conditions: Homo sapiens;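 also: growth inhibition of A253 cells, read out with a cell viability assay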
Description: SANGER: Inhibition of human A253 cell growth in a cell viability assay.

AGS = experiment: cells; type: functional, cell-based; conditions: Homo sapiens;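 also: growth inhibition of AGS cells, determined with a cell viability assay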
Description: SANGER: Inhibition of human AGS cell growth in a cell viability assay.

BFTC-909 = experiment: cells; type: functional, cell-based; conditions: Homo sapiens
Description: SANGER: Inhibition of human BFTC-909 cell growth in a cell viability assay.

C3A = experiment: cells; type: functional, cell-based; conditions: Homo sapiens;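 also: growth inhibition of C3A human cells, quantified with a cell viability readout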
Description: SANGER: Inhibition of human C3A cell growth in a cell viability assay.

CAL-51 = experiment: cells; type: functional, cell-based; conditions: Homo sapiens;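 also: human CAL-51 cell line, growth inhibition read out via a cell viability assay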
Description: SANGER: Inhibition of human CAL-51 cell growth in a cell viability assay.

CAL-62 = experiment: cells; type: functional, cell-based; conditions: Homo sapiens;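 also: growth inhibition of CAL-62 cells, read out with a cell viability assay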
Description: SANGER: Inhibition of human CAL-62 cell growth in a cell viability assay.

TE-441-T = experiment: cells; type: functional, cell-based; conditions: Homo sapiens
Description: SANGER: Inhibition of human TE-441-T cell growth in a cell viability assay.

TYK-nu = experiment: cells; type: functional, cell-based; conditions: Homo sapiens;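 also: growth inhibition of human TYK-nu cells, read out by a cell viability assay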
Description: SANGER: Inhibition of human TYK-nu cell growth in a cell viability assay.

CC(O)(CS(=O)(=O)c1ccc(F)cc1)C(=O)Nc1ccc(C#N)c(C(F)(F)F)c1 (stereo not drawn) [BICALUTAMIDE]
pIC50 (COR-L23): < 5.99
pIC50 (COR-L279): < 5.99
pIC50 (ChaGo-K-1): < 5.99
pIC50 (D-542MG): < 5.99
pIC50 (Daudi): < 5.99
pIC50 (EB2): < 5.99
pIC50 (ECC4): < 5.99
pIC50 (EGI-1): < 5.99
pIC50 (EVSA-T): < 5.99
pIC50 (HCT-116): < 5.99
pIC50 (HLE): < 5.99
pIC50 (HPAF-II): < 5.99
pIC50 (HT1197): < 5.99
pIC50 (HuP-T4): < 5.99
pIC50 (IST-SL2): < 5.99
pIC50 (KMS-12-PE): < 5.99
pIC50 (KU-19-19): < 5.99
pIC50 (KYSE-150 cell line): < 5.99
pIC50 (KYSE-180): < 5.99
pIC50 (KYSE-270): < 5.99
pIC50 (LB996-RCC): < 5.99
pIC50 (MDA-MB-468): < 5.99
pIC50 (ME-180): < 5.99
pIC50 (MEL-HO): < 5.99
pIC50 (MEL-JUSO): < 5.99
pIC50 (MONO-MAC-6): < 5.99
pIC50 (NB1): < 5.99
pIC50 (NCI-H1703): < 5.99
pIC50 (NCI-H2081): < 5.99
pIC50 (NCI-H2228): < 5.99
pIC50 (NCI-H2347): < 5.99
pIC50 (NCI-H322M): < 5.99
pIC50 (NCI-H748): < 5.99
pIC50 (NCI-H889): < 5.99
pIC50 (SNU-16): < 5.99
pIC50 (PANC-03-27): < 5.99
pIC50 (PANC-08-13): < 5.99
pIC50 (PC-14): < 5.99
pIC50 (PLC-PRF-5): < 5.99
pIC50 (RERF-LC-MS): < 5.99
pIC50 (RMG-I): < 5.99
pIC50 (RPMI 8402): < 5.99
pIC50 (RT-4): < 5.99
pIC50 (SNU-387): < 5.99
pIC50 (SNU-423): < 5.99
pIC50 (SW1463): < 5.99
pIC50 (SW48): < 5.99
pIC50 (SW780): < 5.99
pIC50 (T47D): < 5.99
pIC50 (647-V): < 5.99
pIC50 (A 172): < 5.99
pIC50 (A253 cell line): < 5.99
pIC50 (AGS): < 5.99
pIC50 (BFTC-909): < 5.99
pIC50 (C3A): < 5.99
pIC50 (CAL-51): < 5.99
pIC50 (CAL-62): < 5.99
pIC50 (TE-441-T): < 5.99
pIC50 (TYK-nu): < 5.99

CCNC(=O)c1noc(-c2cc(C(C)C)c(O)cc2O)c1-c1ccc(CN2CCOCC2)cc1 [LUMINESPIB]
pIC50 (COR-L23): 7.57
pIC50 (COR-L279): 6.80
pIC50 (ChaGo-K-1): 6.90
pIC50 (D-542MG): 6.85
pIC50 (Daudi): 7.47
pIC50 (EB2): 7.14
pIC50 (ECC4): 6.70
pIC50 (EGI-1): 6.75
pIC50 (EVSA-T): 7.03
pIC50 (HCT-116): 6.82
pIC50 (HLE): 7.22
pIC50 (HPAF-II): < 6.59
pIC50 (HT1197): 7.77
pIC50 (HuP-T4): 7.18
pIC50 (IST-SL2): 7.24
pIC50 (KMS-12-PE): 6.89
pIC50 (KU-19-19): 6.97
pIC50 (KYSE-150 cell line): 7.44
pIC50 (KYSE-180): 8.23
pIC50 (KYSE-270): 7.98
pIC50 (LB996-RCC): 7.57
pIC50 (MDA-MB-468): 7.00
pIC50 (ME-180): 7.32
pIC50 (MEL-HO): 7.78
pIC50 (MEL-JUSO): 7.77
pIC50 (MONO-MAC-6): 7.41
pIC50 (NB1): 6.84
pIC50 (NCI-H1703): 7.21
pIC50 (NCI-H2081): 6.82
pIC50 (NCI-H2228): 7.97
pIC50 (NCI-H2347): 7.10
pIC50 (NCI-H322M): < 6.59
pIC50 (NCI-H748): < 6.59
pIC50 (NCI-H889): < 6.59
pIC50 (SNU-16): < 6.59
pIC50 (PANC-03-27): 7.93
pIC50 (PANC-08-13): 7.11
pIC50 (PC-14): 7.71
pIC50 (PLC-PRF-5): < 6.59
pIC50 (RERF-LC-MS): 6.87
pIC50 (RMG-I): < 6.59
pIC50 (RPMI 8402): < 6.59
pIC50 (RT-4): < 6.59
pIC50 (SNU-387): 7.04
pIC50 (SNU-423): 7.98
pIC50 (SW1463): < 6.59
pIC50 (SW48): 7.39
pIC50 (SW780): < 6.59
pIC50 (T47D): < 6.59
pIC50 (647-V): 6.83
pIC50 (A 172): 7.40
pIC50 (A253 cell line): 7.30
pIC50 (AGS): 7.97
pIC50 (BFTC-909): 7.51
pIC50 (C3A): 7.61
pIC50 (CAL-51): 8.49
pIC50 (CAL-62): 7.59
pIC50 (TE-441-T): 7.31
pIC50 (TYK-nu): < 6.59

Reference: ChEMBL document CHEMBL1201861, “Genomics of Drug Sensitity in Cancer screening data, Wellcome Trust Sanger Institute”
